# From patent US4767776A, “N-1H-tetrazol-5-yl-2-naphthalene carboxamides and their use as antiallergy and antiinflammatory agents” (Warner-Lambert Company, priority 1987, dated 1988)
# Test system: human basophils
# Assay: Histamine release from human basophils (HHB)
# Assay type: cell-based
# Details: anti-IgE stimulus, at highest dose tested, column head: tested at 33 μM, read-out: % Inhibition of Histamine Release with Anti-IgE Stimulus (at highest dose tested)
# Protocol: HISTAMINE RELEASE FROM HUMAN BASOPHILS
# The blood samples are placed briefly on a rotary mixer. All glassware contacting the blood is siliconized. The blood is aliquoted into three plastic 50 ml centrifuge tubes and the volume is noted. Hespan (hydroxy ethyl starch), 0.5 ml per 1.0 ml of blood, is added. The tubes are inverted several times to mix and are left undisturbed at room temperature until a sharp separation is observed between the settled red cells and the leukocyte and platelet-rich plasma. This usually occurs within 35-45 minutes.
# The plasma fraction is pipetted off and placed into two clean plastic 50 ml centrifuge tubes. […] The platelets remain in the plasma and are discarded. The pelleted leukocytes are shaken gently to disrupt the cell button and washed twice as described:
# Wash 1. Five ml of HA buffer with 0.005M EDTA is added to the dispersed cells in each tube and gently vortexed. 25 ml of buffer is then added and gently vortexed. The samples are again centrifuged as described earlier. The supernatant is poured off, and the cell button in each tube is gently dispersed.
# Wash 2. Five ml of HA buffer with EDTA is added to each tube to resuspend the cells. Leukocytes are then pooled into one tube and the volume is brought up to 40 ml with HA buffer with EDTA and gently vortexed. […] The supernatant fluid is discarded and the cell button is dispersed. Sixteen ml of HACM buffer is added to the washed cells and gently vortexed. A sample is prepared for Hematology, where a total white blood cell and platelet count is done using a Coulter Counter.
# Aliquots (0.1 ml) of cells are added to assay tubes containing 0.4 ml of either 6% perchloric acid (for total histamine content), vehicle control (for spontaneous release), or drug. The tubes are incubated at room temperature for 8 minutes, and then placed in a 37° water bath for two more minutes. Buffer or challenge agents (at 37°) are added to the tube and they are incubated for an additional 45 minutes at 37°. The tubes are then spun at 2000 RPM (1200 g) for three minutes to pellet the cells and the supernatants are poured into assay cups.
# If the compound is in solution, distilled water is used to bring it up to 100 ml total volume. If the drug is not in solution, 0.2 ml 1N NaOH (or HCl) is added, and then distilled water is added to yield 100 ml total solution. Five ml of the stock solution is diluted (1:2) with 5 ml of two times concentrated HACM (Hepes Albumin Calcium Magnesium) buffer to yield the stock working concentration of 150 μM. […] Further dilutions are made with HACM buffer for 33, 10, 3.3, 1.0 μM, etc.
# Short ragweed and house dust extracts (Greer Laboratories, Inc.) are supplied as aqueous extracts in stock concentrations of 40,000 and 10,000 protein nitrogen units per milliliter (PNU/ml), respectively. Aqueous solutions of anti-IgE antisera (rabbit-raised antibody) are purchased from Dako via Accurate Chemicals. The tripeptide f-met-leu-phe (fmlp) from Vega Biochemicals is used. The aqueous solutions of ragweed, house dust, and anti-IgE are diluted 1:2 with two times concentrated HACM and then further diluted with HACM to yield final stock concentrations of […] for ragweed and house dust, and a 1:50 dilution for the anti-IgE antisera. […] The pH is adjusted to 7.4. Further dilutions for working solutions are made in HACM buffer. All stock and working solutions are stored at 4°. Working solutions comprise 1/6 of the final volume in the cell reaction, therefore, working solutions of challenge agents are made up six times the required final concentration (i.e., 600 μM f-met-leu-phe yields 100 μM final concentration in the cellular reaction).
# Samples are run in triplicate, using either 1.5 ml polypropylene-capped reaction tubes, or 5.0 ml plastic uncapped tubes.
row,SMILES,inhibition at 33 µM
1,"CC(C)Oc1ccc2ccc(C(=O)Nc3nnn[nH]3)c(OC(C)C)c2c1 [Example 27, 1,7-bis(1-Methylethoxy)-N-1H-tetrazol-5-yl-2-naphthalenecarboxamide]",0%

# Same assay, conditions: anti-IgE stimulus, tested at 33 μM, read-out: % Inhibition of Histamine Release with Anti-IgE Stimulus
row,SMILES,inhibition at 33 µM
1,"CC(C)Oc1c(C(=O)Nc2nnn[nH]2)ccc2ccccc12 [Example 23, 1-(1-Methylethoxy)-N-1H-tetrazol-5-yl-2-naphthalenecarboxamide]",16%
2,"COc1ccc2ccc(C(=O)Nc3nnn[nH]3)c(OC(C)C)c2c1 [Example 26, 7-Methoxy-1-(1-methylethoxy)-N-1H-tetrazol-5-yl-2-naphthalenecarboxamide]",91%
3,"COc1ccc2ccc(C(=O)Nc3nn[nH]n3)c(OC)c2c1 [Example 24, 1,7-Dimethoxy-N-1H-tetrazol-5-yl-2-napthalenecarboxamide]",57%
4,"COc1ccc2c(OC(C)C)c(C(=O)Nc3nnn[nH]3)ccc2c1 [Example 22, 6-Methoxy-1-(1-methylethoxy)-N-1H-tetrazol-5-yl-2-naphthalenecarboxamide]",71%
5,"COc1cccc2c(OC(C)C)c(C(=O)Nc3nnn[nH]3)ccc12 [Example 25, 5-Methoxy-1-(1-methylethoxy)-N-1H-tetrazol-5-yl-2-naphthalenecarboxamide]",11%
